System: NOMO1
Experiment: cell viability relative to DMSO control; higher = less cytotoxic
Details: 48 h
Procedure, shortened: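 In 1536-well plates, 5 μl of leukemia cells were seeded per well: 500 cells/well for NOMO1 or SEM and 1000 cells/well for P12-Ichikawa. Each line had first been adapted for at least four passages in each medium. Library compounds in DMSO were pin-dosed at 11 threefold concentrations between 47 μM and 0.79 nM, and CellTiter-Glo One luminescence was read after 48 h at 37°C. Viability is a per-plate percentage relative to DMSO wells, with cell-free wells as background.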

[1] = HPLM + 10% dialyzed FBS, 0.000781 µM
[2] = HPLM + 10% dialyzed FBS, 0.00234 µM
[3] = HPLM + 10% dialyzed FBS, 0.00702 µM
[4] = HPLM + 10% dialyzed FBS, 0.0211 µM
[5] = HPLM + 10% dialyzed FBS, 0.0632 µM
[6] = HPLM + 10% dialyzed FBS, 0.19 µM
[7] = HPLM + 10% dialyzed FBS, 0.569 µM
[8] = HPLM + 10% dialyzed FBS, 1.71 µM
[9] = HPLM + 10% dialyzed FBS, 5.12 µM
[10] = HPLM + 10% dialyzed FBS, 15.4 µM
[11] = HPLM + 10% dialyzed FBS, 46.1 µM
[12] = RPMI 5 mM glucose + 10% FBS, 0.000781 µM
[13] = RPMI 5 mM glucose + 10% FBS, 0.00234 µM
[14] = RPMI 5 mM glucose + 10% FBS, 0.00702 µM
[15] = RPMI 5 mM glucose + 10% FBS, 0.0211 µM
[16] = RPMI 5 mM glucose + 10% FBS, 0.0632 µM
[17] = RPMI 5 mM glucose + 10% FBS, 0.19 µM
[18] = RPMI 5 mM glucose + 10% FBS, 0.569 µM
[19] = RPMI 5 mM glucose + 10% FBS, 1.71 µM
[20] = RPMI 5 mM glucose + 10% FBS, 5.12 µM
[21] = RPMI 5 mM glucose + 10% FBS, 15.4 µM
[22] = RPMI 5 mM glucose + 10% FBS, 46.1 µM
[23] = RPMI 5 mM glucose + 10% dialyzed FBS, 0.000781 µM
[24] = RPMI 5 mM glucose + 10% dialyzed FBS, 0.00234 µM
[25] = RPMI 5 mM glucose + 10% dialyzed FBS, 0.00702 µM
[26] = RPMI 5 mM glucose + 10% dialyzed FBS, 0.0211 µM
[27] = RPMI 5 mM glucose + 10% dialyzed FBS, 0.0632 µM
[28] = RPMI 5 mM glucose + 10% dialyzed FBS, 0.19 µM
[29] = RPMI 5 mM glucose + 10% dialyzed FBS, 0.569 µM
[30] = RPMI 5 mM glucose + 10% dialyzed FBS, 1.71 µM
[31] = RPMI 5 mM glucose + 10% dialyzed FBS, 5.12 µM
[32] = RPMI 5 mM glucose + 10% dialyzed FBS, 15.4 µM
[33] = RPMI 5 mM glucose + 10% dialyzed FBS, 46.1 µM

C#CCN(C)[C@H](C)Cc1ccccc1
cell viability [1]: 88.2%
cell viability [2]: 89.6%
cell viability [3]: 88.5%
cell viability [4]: 87.2%
cell viability [5]: 76.7%
cell viability [6]: 79.7%
cell viability [7]: 85.6%
cell viability [8]: 83%
cell viability [9]: 92%
cell viability [10]: 79.8%
cell viability [11]: 65.1%
cell viability [12]: 82.2%
cell viability [13]: 82.8%
cell viability [14]: 82%
cell viability [15]: 85.4%
cell viability [16]: 77%
cell viability [17]: 83.9%
cell viability [18]: 79.4%
cell viability [19]: 76%
cell viability [20]: 82.9%
cell viability [21]: 78.9%
cell viability [22]: 77.5%
cell viability [23]: 77.6%
cell viability [24]: 86.1%
cell viability [25]: 84.2%
cell viability [26]: 95.6%
cell viability [27]: 85%
cell viability [28]: 94%
cell viability [29]: 83.5%
cell viability [30]: 80%
cell viability [31]: 92.2%
cell viability [32]: 83.6%
cell viability [33]: 82.7%

COc1cc2c(Nc3ccc(NC(=O)c4ccccc4)cc3)ncnc2cc1OCCCN1CCOCC1
cell viability [1]: 122%
cell viability [2]: 124%
cell viability [3]: 128%
cell viability [4]: 126%
cell viability [5]: 137%
cell viability [6]: 133%
cell viability [7]: 144%
cell viability [8]: 122%
cell viability [9]: 103%
cell viability [10]: 114%
cell viability [11]: 115%

CC#C[C@]1(O)CC[C@H]2[C@@H]/3CCC/4=C/C(=O)CCC4=C3[C@H](C[C@]12C)C5=CC=C(C=C5)N(C)C
cell viability [1]: 95.5%
cell viability [2]: 99.9%
cell viability [3]: 101%
cell viability [4]: 102%
cell viability [5]: 103%
cell viability [6]: 96.1%
cell viability [7]: 102%
cell viability [8]: 94.8%
cell viability [9]: 79.3%
cell viability [10]: 9.1%
cell viability [11]: 6.71%
cell viability [12]: 83.5%
cell viability [13]: 95.2%
cell viability [14]: 91.3%
cell viability [15]: 86.2%
cell viability [16]: 90%
cell viability [17]: 88.1%
cell viability [18]: 93.4%
cell viability [19]: 95.5%
cell viability [20]: 73.2%
cell viability [21]: 9.23%
cell viability [22]: 5.91%
cell viability [23]: 90.7%
cell viability [24]: 81.5%
cell viability [25]: 88.7%
cell viability [26]: 97.2%
cell viability [27]: 110%
cell viability [28]: 90.3%
cell viability [29]: 93%
cell viability [30]: 85.4%
cell viability [31]: 70.9%
cell viability [32]: 9.38%
cell viability [33]: 6.16%

C=C(C)[C@@H]1CC[C@]2(C)CC[C@]3(C)[C@H](CC[C@@H]4[C@@]5(C)CC[C@H](O)C(C)(C)[C@@H]5CC[C@]43C)[C@@H]12
cell viability [1]: 90.7%
cell viability [2]: 95.3%
cell viability [3]: 104%
cell viability [4]: 123%
cell viability [5]: 115%
cell viability [6]: 127%
cell viability [7]: 109%
cell viability [8]: 119%
cell viability [9]: 134%
cell viability [10]: 117%
cell viability [11]: 131%
cell viability [12]: 106%
cell viability [13]: 111%
cell viability [14]: 114%
cell viability [15]: 126%
cell viability [16]: 121%
cell viability [17]: 127%
cell viability [18]: 121%
cell viability [19]: 115%
cell viability [20]: 124%
cell viability [21]: 130%
cell viability [22]: 115%
cell viability [23]: 113%
cell viability [24]: 106%
cell viability [25]: 111%
cell viability [26]: 106%
cell viability [27]: 100%
cell viability [28]: 113%
cell viability [29]: 113%
cell viability [30]: 123%
cell viability [31]: 123%
cell viability [32]: 124%
cell viability [33]: 115%

C1Cc2[nH]nc(-c3nn[nH]n3)c2C1
cell viability [1]: 128%
cell viability [2]: 120%
cell viability [3]: 119%
cell viability [4]: 139%
cell viability [5]: 149%
cell viability [6]: 145%
cell viability [7]: 131%
cell viability [8]: 143%
cell viability [9]: 140%
cell viability [10]: 145%
cell viability [11]: 142%
cell viability [23]: 122%
cell viability [24]: 124%
cell viability [25]: 131%
cell viability [26]: 139%
cell viability [27]: 135%
cell viability [28]: 144%
cell viability [29]: 137%
cell viability [30]: 147%
cell viability [31]: 131%
cell viability [32]: 145%
cell viability [33]: 149%

CC/1=C/N([C@@H]2C[C@@H](O)[C@H](CO)O2)C(=O)NC1=O
cell viability [1]: 97.5%
cell viability [2]: 109%
cell viability [3]: 89%
cell viability [4]: 104%
cell viability [5]: 102%
cell viability [6]: 101%
cell viability [7]: 100%
cell viability [8]: 95.1%
cell viability [9]: 80.3%
cell viability [10]: 92.8%
cell viability [11]: 61.2%
cell viability [12]: 84.9%
cell viability [13]: 85.2%
cell viability [14]: 82%
cell viability [15]: 83.4%
cell viability [16]: 88.7%
cell viability [17]: 99.3%
cell viability [18]: 79.7%
cell viability [19]: 88.1%
cell viability [20]: 90.1%
cell viability [21]: 83.7%
cell viability [22]: 66.4%
cell viability [23]: 80%
cell viability [24]: 94%
cell viability [25]: 84.6%
cell viability [26]: 86.4%
cell viability [27]: 98.4%
cell viability [28]: 87.7%
cell viability [29]: 92.1%
cell viability [30]: 85%
cell viability [31]: 75.9%
cell viability [32]: 94.4%
cell viability [33]: 62.3%

N[C@@H](C(=O)N[C@H]1[C@H]2SC\C(=C(/N2C1=O)C(O)=O)Cl)C3=CC=CC=C3
cell viability [1]: 123%
cell viability [2]: 124%
cell viability [3]: 125%
cell viability [4]: 136%
cell viability [5]: 150%
cell viability [6]: 119%
cell viability [7]: 126%
cell viability [8]: 108%
cell viability [9]: 134%
cell viability [10]: 145%
cell viability [11]: 135%

O=[N+]([O-])c1cn2c(n1)OC[C@@H](OCc1ccc(OC(F)(F)F)cc1)C2
cell viability [23]: 120%
cell viability [24]: 141%
cell viability [25]: 115%
cell viability [26]: 126%
cell viability [27]: 145%
cell viability [28]: 142%
cell viability [29]: 148%
cell viability [30]: 118%
cell viability [31]: 138%
cell viability [32]: 139%
cell viability [33]: 120%

COCCOC(=O)C/1=C(C)/NC/2=C(C1C3=CC=CC(=C3)O)/C(=O)CC(C2)C4=C(OC)C=CC=C4 (stereo not given)
cell viability [1]: 96.9%
cell viability [2]: 105%
cell viability [3]: 93.2%
cell viability [4]: 118%
cell viability [5]: 116%
cell viability [6]: 104%
cell viability [7]: 124%
cell viability [8]: 97.9%
cell viability [9]: 102%
cell viability [10]: 87.5%
cell viability [11]: 59.3%
cell viability [12]: 82.5%
cell viability [13]: 89.6%
cell viability [14]: 110%
cell viability [15]: 118%
cell viability [16]: 119%
cell viability [17]: 99.7%
cell viability [18]: 99.7%
cell viability [19]: 99.5%
cell viability [20]: 97.3%
cell viability [21]: 96.9%
cell viability [22]: 78.5%
cell viability [23]: 89.4%
cell viability [24]: 105%
cell viability [25]: 99.7%
cell viability [26]: 99.6%
cell viability [27]: 114%
cell viability [28]: 109%
cell viability [29]: 112%
cell viability [30]: 99.2%
cell viability [31]: 109%
cell viability [32]: 91.4%
cell viability [33]: 85.2%

Reference: the supplement of paper PMC11451515
